Experiments:
[1] = target: Beta-lactamase (Escherichia coli K-12) (UniProt P00811); assay: Inhibition of beta-lactamase at 100 uM
[2] = target: T1, Malate dehydrogenase, cytoplasmic (Homo sapiens) (UniProt P40925); assay: Inhibition of malate dehydrogenase (MDH) at 400 uM
T1 sequence (whole entry): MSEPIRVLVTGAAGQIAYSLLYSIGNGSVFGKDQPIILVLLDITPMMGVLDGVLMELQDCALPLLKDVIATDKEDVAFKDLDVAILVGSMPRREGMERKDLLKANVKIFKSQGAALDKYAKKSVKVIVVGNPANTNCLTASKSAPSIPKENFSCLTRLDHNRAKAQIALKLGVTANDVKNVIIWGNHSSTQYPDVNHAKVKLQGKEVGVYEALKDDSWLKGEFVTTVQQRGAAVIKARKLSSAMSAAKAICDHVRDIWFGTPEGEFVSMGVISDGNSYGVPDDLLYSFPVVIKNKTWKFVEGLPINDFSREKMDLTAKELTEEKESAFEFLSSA

[3] = target: T2, Chymotrypsin-C (Homo sapiens) (UniProt Q99895); assay: Inhibition of chymotrypsin at 250 uM; conditions: unidentified
T2 sequence (whole entry): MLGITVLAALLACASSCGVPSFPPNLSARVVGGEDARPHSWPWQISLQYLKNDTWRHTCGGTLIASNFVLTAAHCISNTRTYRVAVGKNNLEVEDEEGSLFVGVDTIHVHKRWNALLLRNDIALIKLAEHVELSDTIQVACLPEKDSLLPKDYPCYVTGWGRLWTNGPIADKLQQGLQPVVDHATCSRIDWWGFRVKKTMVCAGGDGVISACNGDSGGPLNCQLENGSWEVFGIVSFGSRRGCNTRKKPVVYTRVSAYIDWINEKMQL

[4] = target: T3, Malate dehydrogenase, mitochondrial (Sus scrofa) (UniProt P00346); assay: Compound was tested for the inhibition of malate dehydrogenase (MDH) at 200 uM
T3 sequence (whole entry): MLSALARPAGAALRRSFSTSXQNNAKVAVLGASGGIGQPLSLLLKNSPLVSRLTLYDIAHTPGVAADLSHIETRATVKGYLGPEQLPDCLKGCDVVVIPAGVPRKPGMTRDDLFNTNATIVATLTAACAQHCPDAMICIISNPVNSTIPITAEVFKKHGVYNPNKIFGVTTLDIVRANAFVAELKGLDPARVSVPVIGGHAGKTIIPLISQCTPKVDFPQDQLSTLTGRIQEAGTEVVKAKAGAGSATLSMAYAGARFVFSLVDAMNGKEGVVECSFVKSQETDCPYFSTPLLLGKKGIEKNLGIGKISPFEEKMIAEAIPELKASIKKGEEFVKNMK

Chymotrypsinogen A [5] = target: T4, Chymotrypsinogen A (Bos taurus, UniProt P00766); assay: Compound was tested for the inhibition of Chymotrypsinogen
Beta-lactamase [6] = target: T5, Beta-lactamase (Escherichia coli K-12, UniProt P00811); assay: Compound was tested for the inhibition of beta-lactamase
T5 sequence (P00811 whole entry): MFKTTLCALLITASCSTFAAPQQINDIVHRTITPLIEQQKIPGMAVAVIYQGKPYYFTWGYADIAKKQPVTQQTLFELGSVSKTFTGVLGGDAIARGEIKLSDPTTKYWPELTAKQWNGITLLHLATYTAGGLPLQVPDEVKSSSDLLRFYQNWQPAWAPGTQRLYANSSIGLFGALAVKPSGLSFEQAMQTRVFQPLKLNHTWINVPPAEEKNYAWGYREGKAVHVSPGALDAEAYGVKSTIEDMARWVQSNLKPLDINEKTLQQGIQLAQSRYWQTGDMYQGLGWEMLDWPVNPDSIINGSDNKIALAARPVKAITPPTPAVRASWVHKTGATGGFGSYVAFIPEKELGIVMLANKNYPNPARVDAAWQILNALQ

[7] = target: Chymotrypsinogen A (Bos taurus) (UniProt P00766); assay: Compound was tested for the inhibition of Chymotrypsinogen at 400 uM
[8] = target: T6, Malate dehydrogenase, mitochondrial (Sus scrofa, UniProt P00346); assay: Fold increase in IC50 vs malate dehydrogenase (MDH) with 1 mg/ml saponin; increase
T6 sequence (P00346 whole entry): T3 sequence (whole entry)

[9] = Mean maximal plasma concentration; format: ADME, organism-based
[10] = target: Chymotrypsinogen A (Bos taurus) (UniProt P00766); assay: Compound was tested for the inhibition of Chymotrypsinogen at 250 uM (Inhibition is time dependent)
[11] = target: T3, Malate dehydrogenase, mitochondrial (Sus scrofa); assay: Compound was tested for the inhibition of malate dehydrogenase (MDH) at 100 uM
[12] = target: T6, Malate dehydrogenase, mitochondrial; assay: Fold decrease in IC50 vs malate dehydrogenase (MDH) on pre-incubation; no change
Beta-lactamase [13] = target: T5, Beta-lactamase; assay: Compound was tested for the inhibition beta-lactamase with 0.1 mg/ml saponin:No inhibition
Beta-lactamase [14] = target: T5, Beta-lactamase; assay: Effect of increase in enzyme concentration by 10 times on the inhibition of beta-lactamase by the compound:No inhibition
Beta-lactamase [15] = target: T5, Beta-lactamase; assay: Effect of pre-incubation with enzyme on the inhibition of beta-lactamase:No inhibition
[16] = target: T3, Malate dehydrogenase, mitochondrial (Sus scrofa); assay: Compound was tested for the inhibition of malate dehydrogenase (MDH) at 50 uM
Chymotrypsinogen A [17] = target: T4, Chymotrypsinogen A; assay: Fold decrease in IC50 vs chymotrypsinogen on pre-incubation; increase
[18] = Topical dosage on […] scabies; format: functional

Sequence of Beta-lactamase (Escherichia coli K-12) (P00811 whole entry): as above

SMILES	inhibition [1] [%]	inhibition [2] [%]	inhibition [3] [%]	other results
CCc1cccc2c3c([nH]c12)C(CC)(CC(=O)O)OCC3 (stereo unspecified)	< 5	9	< 5	–
COc1ccc2[nH]c([S+]([O-])Cc3ncc(C)c(OC)c3C)nc2c1 (stereo unspecified)	< 5	< 5	< 5	–
O=C1CN(/N=C/c2ccc([N+](=O)[O-])o2)C(=O)N1	< 5	97	91	–
Nc1ccc(S(=O)(=O)Nc2ncccn2)cc1	< 5	–	< 5	inhibition [4]: < 5%
O=C(O)CCCc1ccc(N(CCCl)CCCl)cc1	< 5	44	23	–
O=C1CCC(N2C(=O)c3ccccc3C2=O)C(=O)N1 (stereo unspecified)	< 5	< 5	< 5	–
Nc1ccc(O)c(C(=O)O)c1	< 5	–	< 5	inhibition [4]: 18%
Clc1ccc(COC(Cn2ccnc2)c2ccc(Cl)cc2Cl)cc1 (stereo unspecified) [ECONAZOLE]	–	–	–	IC50 (Chymotrypsinogen A [5]): 150 µM; IC50 (Beta-lactamase [6]): 25 µM
NS(=O)(=O)c1cc(C(=O)O)c(NCc2ccco2)cc1Cl	< 5	21	< 5	–
Nc1c2c(nc3ccccc13)CCCC2	< 5	83	< 5	–
Clc1ccc(CSC(Cn2ccnc2)c2ccc(Cl)cc2Cl)cc1 (stereo unspecified) [SULCONAZOLE]	–	–	–	IC50 (Chymotrypsinogen A [5]): 110 µM
CC(=O)N(O)CCCCCNC(=O)CCC(=O)N(O)CCCCCNC(=O)CCC(=O)N(O)CCCCCN	< 5	< 5	< 5	–
Cc1cccc(Nc2ccccc2C(=O)O)c1C [MEFENAMIC ACID]	–	–	–	inhibition [7]: 41%; IC50 [8]: increase; IC50 (Beta-lactamase [6]): 350 µM; Cmax [9]: 83 µM
CC(C)[N+](C)(CCOC(=O)C1c2ccccc2Oc2ccccc21)C(C)C	< 5	< 5	–	inhibition [10]: 96%
O=C(O)CCCCCCCC(=O)O	< 5	8	< 5	–
Cc1cc2nc3c(=O)[nH]c(=O)nc-3n(C[C@H](O)[C@H](O)[C@H](O)CO)c2cc1C	< 5	–	< 5	inhibition [11]: < 5%
Cc1oncc1C(=O)Nc1ccc(C(F)(F)F)cc1	< 5	12	< 5	–
COC(=O)C1=C(C)NC(C)=C(C(=O)OCCN(C)Cc2ccccc2)C1c1cccc([N+](=O)[O-])c1 (stereo unspecified) [NICARDIPINE]	–	–	–	IC50 (Chymotrypsinogen A [5]): 175 µM; IC50 [12]: Not Active; Cmax [9]: 0.184 µM
CCN(CC)CC(=O)Nc1c(C)cccc1C	< 5	< 5	< 5	–
CC(C)Nc1cccnc1N1CCN(C(=O)c2cc3cc(NS(C)(=O)=O)ccc3[nH]2)CC1 [DELAVIRDINE]	–	–	–	IC50 (Chymotrypsinogen A [5]): 225 µM; IC50 (Beta-lactamase [6]): 90 µM
CCC1(c2ccccc2)C(=O)NCNC1=O	< 5	13	< 5	–
NC(=O)N1c2ccccc2C=Cc2ccccc21	< 5	8	< 5	–
Cc1nccn1CC1CCc2c(c3ccccc3n2C)C1=O (stereo unspecified)	< 5	< 5	< 5	–
Nc1ccc(S(=O)(=O)c2ccc(N)cc2)cc1	< 5	11	< 5	–
OC(Cn1cncn1)(Cn1cncn1)c1ccc(F)cc1F [FLUCONAZOLE]	–	–	–	IC50 (Beta-lactamase [13]): Not Active; IC50 (Chymotrypsinogen A [5]): > 400 µM; IC50 (Beta-lactamase [6]): > 400 µM; IC50 (Beta-lactamase [14]): Not Active; IC50 (Beta-lactamase [15]): Not Active
O=C1C(CC[S+]([O-])c2ccccc2)C(=O)N(c2ccccc2)N1c1ccccc1 (stereo unspecified)	< 5	83	27	–
COc1cc(Cc2cnc(N)nc2N)cc(OC)c1OC	< 5	< 5	< 5	–
Nc1cc(-c2ccncc2)c[nH]c1=O	< 5	–	< 5	inhibition [16]: < 5%

SMILES	inhibition [1] [%]	inhibition [2] [%]	inhibition [3] [%]	other results
Cc1cccc(Nc2ccncc2S(=O)(=O)NC(=O)NC(C)C)c1	< 5	14	< 5	–
O=C(O)c1cc(-c2ccc(F)cc2F)ccc1O	< 5	< 5	13	–
Nc1nc2ccc(OC(F)(F)F)cc2s1	< 5	–	< 5	inhibition [4]: < 5%
COc1ccc(Cl)cc1C(=O)NCCc1ccc(S(=O)(=O)NC(=O)NC2CCCCC2)cc1 [GLYBURIDE]	–	–	–	IC50 (Chymotrypsinogen A [5]): 360 µM; IC50 (Beta-lactamase [6]): 300 µM; Cmax [9]: 0.215 µM
Cc1c(OCC(F)(F)F)ccnc1C[S+]([O-])c1nc2ccccc2[nH]1 (stereo unspecified)	< 5	< 5	< 5	–
N=C(N)N/N=C/c1c(Cl)cccc1Cl	83	20	< 5	–
Nc1ccc(/N=N/c2ccccc2)c(N)n1	< 5	34	96	–
CNCCCC1c2ccccc2C=Cc2ccccc21	< 5	< 5	< 5	–
Clc1ccc(COC(Cn2ccnc2)c2ccc(Cl)cc2Cl)c(Cl)c1 (stereo unspecified) [MICONAZOLE]	–	–	–	IC50 (Chymotrypsinogen A [5]): 125 µM; IC50 (Beta-lactamase [6]): 40 µM
COc1cc2nc(N3CCN(C(=O)c4ccco4)CC3)nc(N)c2cc1OC	13	–	< 5	inhibition [11]: 14%
Nc1nc(N)c2nc(-c3ccccc3)c(N)nc2n1	< 5	–	< 5	inhibition [16]: 21%
Clc1ccccc1C(c1ccccc1)(c1ccccc1)n1ccnc1 [CLOTRIMAZOLE]	–	–	–	IC50 (Chymotrypsinogen A [5]): 85 µM; IC50 (Beta-lactamase [6]): 20 µM; IC50 (Chymotrypsinogen A [17]): Increase
COc1ccccc1OCC(O)CO (stereo unspecified)	< 5	< 5	< 5	–
CCn1nc(C(=O)O)c(=O)c2cc3c(cc21)OCO3	< 5	–	< 5	inhibition [16]: < 5%
CCCC(C)(COC(N)=O)COC(=O)NC(C)C (stereo unspecified)	< 5	< 5	< 5	–
CN(C)CCN(Cc1ccccc1)c1ccccn1	< 5	< 5	< 5	–
NS(=O)(=O)c1cc(C2(O)NC(=O)c3ccccc32)ccc1Cl (stereo unspecified)	< 5	–	< 5	inhibition [4]: < 5%
COC(=O)Nc1nc2cc(C(=O)c3ccccc3)ccc2[nH]1	< 5	15	< 5	–
CC(C)C(=O)Nc1ccc([N+](=O)[O-])c(C(F)(F)F)c1	< 5	–	< 5	inhibition [11]: < 5%
O=C(OCc1ccccc1)c1ccccc1 [BENZYL BENZOATE]	–	–	–	IC50 (Chymotrypsinogen A [5]): 250 µM; Topical dosage [18]: 1.2 M; IC50 (Beta-lactamase [6]): 90 µM
Nc1nnc(-c2cccc(Cl)c2Cl)c(N)n1	< 5	11	< 5	–
CN(C)CCOC(c1ccccc1)c1ccccc1	< 5	< 5	< 5	–
CC(=O)N1CCN(c2ccc(OCC3COC(Cn4ccnc4)(c4ccc(Cl)cc4Cl)O3)cc2)CC1 (stereo unspecified) [KETOCONAZOLE]	–	–	–	IC50 (Beta-lactamase [13]): Not Active; IC50 (Chymotrypsinogen A [5]): > 150 µM; IC50 (Beta-lactamase [6]): > 150 µM; IC50 (Beta-lactamase [14]): Not Active; IC50 (Beta-lactamase [15]): Not Active
Cc1ccc(C)c(OCCCC(C)(C)C(=O)O)c1	< 5	–	< 5	inhibition [4]: 14%
O=C(O)CCc1nc(-c2ccccc2)c(-c2ccccc2)o1 [OXAPROZIN]	–	–	–	IC50 (Chymotrypsinogen A [5]): 200 µM; IC50 (Beta-lactamase [6]): > 400 µM; Cmax [9]: 372 µM; IC50 (Chymotrypsinogen A [17]): Increase
COc1ccc2c(c1)c(CC(=O)O)c(C)n2C(=O)c1ccc(Cl)cc1	< 5	7	< 5	–
NCCNCCNCCNCCN	< 5	< 5	< 5	–

Reference: ChEMBL document CHEMBL1145124, “Identification and prediction of promiscuous aggregating inhibitors among known drugs” (J Med Chem, 2003)
